Measured values published in patent US4864018A, “Anthraquinone derivatives and their use as protein absorbents” (Imperial Chemical Industries PLC, priority 1985, dated 1989).

Target: T1, horse liver alcohol dehydrogenase (Equus caballus, UniProt P00327)
T1 construct: from tissue; host or cells: horse liver
Assay: affinity of binding with horse liver alcohol dehydrogenase: reduction in rate of enzyme de-activation by CI Reactive Blue 4 in competition with dye
Settings: carboxylate (i), (ii), (iii) versus sulphonate (iv), (v), (vi) respectively
Protocol: Three dyes of Formula I, in which the COOH group on Ring A is in the ortho (o), meta (m) and para (p) positions respectively, (i), (ii) and (iii) in Table 2, and three analogues in which the COOH groups are replaced by SO3 H groups, (iv), (v) and (vi) in Table 2, were assessed by affinity of binding with horse liver alcohol dehydrogenase. The assessment procedure comprised measuring the reduction in rate of enzyme de-activation by CI Reactive Blue 4 (a highly reactive, dichlorotriazine dye which rapidly deactivates horse liver alcohol dehydrogenase) when of dyes (i) to (vi) was allowed to compete with CI Reactive Blue 4 for the enzyme. From the reductions in rate observed the dissociation constants, KD, of the [enzyme-dye] combinations were calculated and these values are listed in Table 2.

T1 sequence (P00327 2-375 limits assumed): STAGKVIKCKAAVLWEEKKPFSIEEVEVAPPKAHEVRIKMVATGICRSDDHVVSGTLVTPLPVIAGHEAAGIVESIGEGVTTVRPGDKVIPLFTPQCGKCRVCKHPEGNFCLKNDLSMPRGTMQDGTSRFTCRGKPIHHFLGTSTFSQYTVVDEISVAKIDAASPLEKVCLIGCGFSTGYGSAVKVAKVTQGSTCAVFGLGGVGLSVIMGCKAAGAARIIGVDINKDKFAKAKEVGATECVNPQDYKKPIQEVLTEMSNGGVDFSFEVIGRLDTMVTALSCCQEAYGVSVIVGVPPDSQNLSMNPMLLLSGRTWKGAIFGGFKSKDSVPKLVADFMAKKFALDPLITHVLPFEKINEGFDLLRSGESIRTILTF

Structure (SMILES): Nc1c(S(=O)(=O)O)cc(Nc2ccc(Nc3nc(Cl)nc(Nc4ccccc4C(=O)O)n3)c(S(=O)(=O)O)c2)c2c1C(=O)c1ccccc1C2=O [(i)]
- binding affinity compared with the corresponding sulphonate analogue: markedly and surprisingly higher

Structure (SMILES): Nc1c(S(=O)(=O)O)cc(Nc2ccc(Nc3nc(Cl)nc(Nc4cccc(C(=O)O)c4)n3)c(S(=O)(=O)O)c2)c2c1C(=O)c1ccccc1C2=O [(ii)]
- binding affinity compared with the corresponding sulphonate analogue: markedly and surprisingly higher

Structure (SMILES): Nc1c(S(=O)(=O)O)cc(Nc2ccc(Nc3nc(Cl)nc(Nc4ccc(C(=O)O)cc4)n3)c(S(=O)(=O)O)c2)c2c1C(=O)c1ccccc1C2=O [(iii)]
- binding affinity compared with the corresponding sulphonate analogue: markedly and surprisingly higher
